Reference: US20170280720A1, “ARGININE […] INHIBITORS AND USES THEREOF” (EPIZYME, INC., priority 2014, published 2017)
pIC50: −log10 of the molar value.

How the values were obtained:
[1] = target: T1, human PRMT1 (Homo sapiens, UniProt Q99873); assay: PRMT1 biochemical assay (3H-SAM Flashplate, peptide substrate); settings: read-out: PRMT1_ IC50
T1 construct: GST-tagged PRMT1; made in house; host or cells: High Five insect cells (baculovirus, pFastBacI)
Excerpt: S-adenosylmethionine (SAM), S-adenosylhomocysteine (SAH), bicine, Tween20, dimethylsulfoxide (DMSO), bovine skin gelatin (BSG), and Tris(2-carboxyethyl)phosphine hydrochloride solution (TCEP) were purchased from Sigma-Aldrich at the highest level of purity possible. ^3H-SAM was purchase from American Radiolabeled Chemicals with a specific activity of 80 Ci/mmol. 384-well streptavidin Flashplates were purchased from PerkinElmer.
Peptide representative of human histone H4 residues 36-50 was synthesized with an N-terminal linker-affinity tag motif and a C-terminal amide cap by 21st Century Biochemicals. The peptide was purified by high-performance liquid chromatography (HPLC) to greater than 95% purity and confirmed by liquid chromatography mass spectrometry (LC-MS). The sequence was Biot-Ahx-[…]-amide (SEQ ID NO.: 1).
Full-length human PRMT1 isoform 1 (NM_001536.5) transcript clone was amplified from an HEK 293 cDNA library, incorporating flanking 5′ sequence encoding a FLAG tag ([…]) (SEQ ID NO.: 2) fused directly to Met 1 of PRMT1. The amplified gene was subcloned into pFastBacI (Life Technologies) modified to encode an N-terminal GST tag and a TEV cleavage sequence ([…] […] […] […] QGGNS)(SEQ ID NO.: 3) fused to Asp of the Flag tag of PRMT1.
Recombinant baculovirus were generated according to Bac-to-Bac kit instructions (Life Technologies). Protein over-expression was accomplished by infecting exponentially growing High Five insect cell culture at 1.5×10^6 cell/ml with 1:100 ratio of virus. Infections were carried out at 27° C. for 48 hours, harvested by centrifugation, and stored at −80° C. for purification.
GST-tagged PRMT1 was eluted with 50 mM Tris, 2 mM glutathione, pH 7.8, dialysed in buffer A and concentrated to 1 mg/mL. The purity of recovered protein was 73%. Reference: Wasilko, D. J. and S. E. Lee: “TIPS: titerless infected-cells preservation and scale-up” Bioprocess J., 5 (2006), pp. 29-32.
General Procedure for PRMT1 Enzyme Assays on Peptide Substrates.
The assays were all performed in a buffer consisting of 20 mM Bicine (pH=7.6), 1 mM TCEP, 0.005% BSG, and 0.002% Tween 20, prepared on the day of use. Compounds in 100% DMSO (1 ul) were spotted into a polypropylene 384-well V-bottom plates (Greiner) using a Platemate Plus outfitted with a 384-channel head (Thermo Scientific). DMSO (1 ul) was added to Columns 11, 12, 23, 24, rows A-H for the maximum signal control and 1 ul of SAH, a known product and inhibitor of PRMT1, was added to columns 11, 12, 23, 24, rows I-P for the minimum signal control. A cocktail (40 ul) containing the PRMT1 enzyme was added by Multidrop Combi (Thermo-Fisher). The compounds were allowed to incubate with PRMT1 for 30 min at room temperature, then a cocktail (10 ul) containing SAM and peptide was added to initiate the reaction (final volume=51 ul). The final concentrations of the components were as follows: PRMT1 was 0.5 nM, ^3H-SAM was 200 nM, non-radiolabeled SAM was 1.5 uM, peptide was 20 nM, SAH in the minimum signal control wells was 1 mM, and the DMSO concentration was 2%. The assays were stopped by the addition of non-radiolabeled SAM (10 ul) to a final concentration of 300 uM, which dilutes the ^3H-SAM to a level where its incorporation into the peptide substrate is no longer detectable. 50 ul of the reaction in the 384-well polypropylene plate was then transferred to a 384-well Flashplate and the biotinylated peptides were allowed to bind to the streptavidin surface for at least 1 hour before being washed once with 0.1% Tween20 in a Biotek ELx405 plate washer. The plates were then read in a PerkinElmer TopCount plate reader to measure the quantity of ^3H-labeled peptide bound to the Flashplate surface, measured as disintegrations per minute (dpm) or alternatively, referred to as counts per minute (cpm).
Where dpm=disintegrations per minute, cmpd=signal in assay well, and min and max are the respective minimum and maximum signal controls. […]

[2] = target: PRMT5 (Homo sapiens, UniProt O14744); assay: PRMT5 IC50 (Table 2; no method described); type: biochemical; settings: read-out: PRMT5_ IC50
[3] = tested on: asymmetric di-methyl PABP1 in RKO cells; assay: In Cell Western (ICW) for asymmetric di-methyl PABP1 and DNA content in RKO cells; type: cell-based; settings: Homo sapiens, RKO, In Cell Western
In short: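 RKO cells treated with compound for 48 h at 37 °C, then fixed, methanol-permeabilized and stained for asymmetric di-methyl PABP1 (800 nm) with DRAQ5 DNA stain (700 nm). Signal ratio normalized to DMSO and 20 μM reference-compound controls. IC50 from nine 3-fold dilutions in triplicate.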

[4] = target: T2, Human CARM1 (PRMT4) (Homo sapiens, UniProt Q86X55); assay: CARM1 biochemical assay (3H-SAM Flashplate, peptide substrate); settings: read-out: CARM1_ IC50
T2 construct: Flag-CARM1-His; made in house; host or cells: HEK 293F cells (BacMam baculovirus, pFastBacMam)
T2 sequence (Q86X55 2-585 isoform Q86X55-1): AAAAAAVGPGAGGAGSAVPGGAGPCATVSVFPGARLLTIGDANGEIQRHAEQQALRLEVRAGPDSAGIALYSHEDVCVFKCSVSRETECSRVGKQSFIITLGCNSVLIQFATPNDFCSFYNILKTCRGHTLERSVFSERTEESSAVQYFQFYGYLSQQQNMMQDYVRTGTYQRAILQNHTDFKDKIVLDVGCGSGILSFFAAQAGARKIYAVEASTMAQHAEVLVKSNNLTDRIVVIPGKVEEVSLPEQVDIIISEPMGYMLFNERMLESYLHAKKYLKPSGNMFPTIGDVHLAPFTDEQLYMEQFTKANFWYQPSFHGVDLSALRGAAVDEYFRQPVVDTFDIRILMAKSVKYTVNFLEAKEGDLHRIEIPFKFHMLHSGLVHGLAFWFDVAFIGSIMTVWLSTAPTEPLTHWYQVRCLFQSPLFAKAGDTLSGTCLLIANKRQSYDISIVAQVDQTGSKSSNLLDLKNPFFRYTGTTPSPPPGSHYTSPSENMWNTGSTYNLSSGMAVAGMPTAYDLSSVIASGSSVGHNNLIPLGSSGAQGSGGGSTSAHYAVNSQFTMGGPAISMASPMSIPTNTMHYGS
In short: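 FLAG/His-tagged human CARM1 (isoform 1, Δ539-561, baculovirus-expressed), 0.25 nM, preincubated 30 min at room temperature with compound (2% DMSO) in 20 mM Bicine pH 7.6, then reacted with 30 nM 3H-SAM and 250 nM biotinylated H3 16-30 peptide (R26 monomethyl). Stopped with 300 uM cold SAM; labelled peptide captured on streptavidin Flashplate; % inhibition versus DMSO and 1 mM SAH controls fitted to a 4- or 3-parameter curve.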

PRMT5, sequence (O14744 whole entry, species assumed): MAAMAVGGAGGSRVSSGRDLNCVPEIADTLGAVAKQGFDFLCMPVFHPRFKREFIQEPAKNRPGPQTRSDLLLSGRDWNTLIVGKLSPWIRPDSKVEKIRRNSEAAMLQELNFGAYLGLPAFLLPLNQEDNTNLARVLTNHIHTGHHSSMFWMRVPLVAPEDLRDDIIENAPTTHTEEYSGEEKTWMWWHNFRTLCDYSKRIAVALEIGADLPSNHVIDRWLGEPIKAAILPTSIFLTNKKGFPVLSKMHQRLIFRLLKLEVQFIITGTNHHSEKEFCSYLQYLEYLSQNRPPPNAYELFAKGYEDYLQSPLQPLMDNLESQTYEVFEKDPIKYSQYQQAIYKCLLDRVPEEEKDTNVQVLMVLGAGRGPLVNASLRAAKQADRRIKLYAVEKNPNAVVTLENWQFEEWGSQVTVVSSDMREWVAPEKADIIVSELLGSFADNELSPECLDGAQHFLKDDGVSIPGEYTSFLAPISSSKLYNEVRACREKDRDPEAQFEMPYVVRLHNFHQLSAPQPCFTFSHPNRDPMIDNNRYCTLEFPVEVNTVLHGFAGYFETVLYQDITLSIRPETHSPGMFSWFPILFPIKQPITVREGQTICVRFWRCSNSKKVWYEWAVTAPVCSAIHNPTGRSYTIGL
PRMT5, sequence (Q9BQA1 whole entry partner, species assumed): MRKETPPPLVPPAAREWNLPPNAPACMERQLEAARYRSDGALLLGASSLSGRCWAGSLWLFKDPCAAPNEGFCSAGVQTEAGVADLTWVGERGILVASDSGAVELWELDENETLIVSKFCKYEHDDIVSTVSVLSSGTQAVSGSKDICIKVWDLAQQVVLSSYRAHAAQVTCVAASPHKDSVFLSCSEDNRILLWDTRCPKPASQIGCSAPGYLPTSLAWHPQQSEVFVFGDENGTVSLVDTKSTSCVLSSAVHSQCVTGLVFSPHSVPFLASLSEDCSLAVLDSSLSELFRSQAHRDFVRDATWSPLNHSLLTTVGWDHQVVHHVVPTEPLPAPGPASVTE
T1 sequence (Q99873 with tags, fused parts or gaps): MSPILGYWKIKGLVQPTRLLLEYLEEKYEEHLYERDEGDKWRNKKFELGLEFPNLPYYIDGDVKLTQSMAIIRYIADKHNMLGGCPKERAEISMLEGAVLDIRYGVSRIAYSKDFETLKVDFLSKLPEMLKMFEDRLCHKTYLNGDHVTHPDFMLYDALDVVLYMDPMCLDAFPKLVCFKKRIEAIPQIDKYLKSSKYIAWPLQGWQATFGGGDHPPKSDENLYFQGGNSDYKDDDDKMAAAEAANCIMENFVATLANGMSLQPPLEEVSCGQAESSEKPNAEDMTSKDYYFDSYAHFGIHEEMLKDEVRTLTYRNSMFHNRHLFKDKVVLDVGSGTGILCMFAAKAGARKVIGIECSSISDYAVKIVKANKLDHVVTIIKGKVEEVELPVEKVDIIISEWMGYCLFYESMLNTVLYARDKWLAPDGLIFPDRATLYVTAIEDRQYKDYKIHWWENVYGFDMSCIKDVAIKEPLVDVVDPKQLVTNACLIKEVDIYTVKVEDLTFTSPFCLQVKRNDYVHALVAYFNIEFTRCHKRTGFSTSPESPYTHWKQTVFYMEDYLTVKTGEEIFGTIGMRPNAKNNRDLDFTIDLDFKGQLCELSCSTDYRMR

Compound	pIC50 [1]	pIC50 [2]	pIC50 [3]	pIC50 [4]
NCCNCc1ccc(-c2ccc3nc(-c4ccc5cccnc5c4)[nH]c3c2)cc1 [Compound 77]	6.50	6.59		
COc1cccc(Cn2cnc3ccc(-c4ccc(CNCCN)cc4)cc32)c1 [Compound 90]	6.37	6.90		
NCCNCc1ccc(-c2ccc3[nH]c(=O)n(-c4ccccc4)c3c2)cc1 [Compound 91]	6.37	6.30		
NCCNCc1ccc(-c2ccc3ncn(-c4ccccc4)c3c2)cc1 [Compound 113]	6.22	6.44		
Cc1cc2cc(-c3ccc(CNCCN)cc3)cnc2[nH]1 [Compound 152]	5.77	6.50		
CN1CCN(C(=O)c2cccc(Cn3cnc4ccc(-c5ccc(CNCCN)cc5)cc43)c2)CC1 [Compound 329]		6.87		5.61
CN1CCCN(C(=O)c2cccc(Cn3cnc4ccc(-c5ccc(CNCCN)cc5)cc43)c2)CC1 [Compound 331]		6.93		5.55
NCCNCc1ccc(-c2ccc3cnn(Cc4cccc(Oc5ccccc5)c4)c3c2)cc1 [Compound 334]		6.33		5.50
NCCNCc1ccc(-c2ccc3ncn(CCc4cccc(Cl)c4)c3c2)cc1 [Compound 336]		7.18		5.29
NCCNCc1ccc(-c2ccc3ncn(Cc4cccc(C(=O)NCc5ccccc5)c4)c3c2)cc1 [Compound 337]		7.48		5.27
NCCNCc1ccc(-c2ccc3ncn(Cc4cccc(C(=O)NC5CC5)c4)c3c2)cc1 [Compound 342]		6.96		5.19
CC(=O)c1cccc(Cn2ncc3ccc(-c4ccc(CNCCN)cc4)cc32)c1 [Compound 343]		6.93		5.05
COCCNC(=O)c1cccc(Cn2cnc3ccc(-c4ccc(CNCCN)cc4)cc32)c1 [Compound 345]		6.94		5.03
CN(C(=O)c1cccc(Cn2cnc3ccc(-c4ccc(CNCCN)cc4)cc32)c1)C1CCCC1 [Compound 346]		6.94		5.00
Cc1cc(C)c(CN2Cc3ccc(-c4ccc(CNCCN)cc4)cc3C2=O)c(=O)[nH]1 [Compound 390]		6.33		4.76

The remaining compounds from weak to strong by pIC50 [2], led by results:

pIC50 [1]	pIC50 [2]	pIC50 [3]	pIC50 [4]	Compound
6.69	4.44			CNCCNCc1ccc(-c2cncc(C(=O)NCc3c(C)cc(C)[nH]c3=O)c2)cc1 [Compound 377]
6.70	4.61			Cc1cc(C)c(CNC(=O)c2ccnc(-c3cccc(CN(C)CCN)c3)c2)c(=O)[nH]1 [Compound 376]
	6.36		5.26	CN1CCCC(Cn2cnc3ccc(-c4ccc(CNCCN)cc4)cc32)C1 (centres unmarked) [Compound 338]
	6.36		5.00	NCCNCc1ccc(-c2ccc3cnn(CC4CCNCC4)c3c2)cc1 [Compound 348]
6.38	6.38			COc1ccc(-n2cnc3ccc(-c4ccc(CNCCN)cc4)cc32)cc1 [Compound 89]
5.34	6.60			Cn1cnc2ccc(-c3ccc(CNCCN)cc3)cc21 [Compound 165]
5.81	6.62			N#Cc1ccc(-n2cnc3ccc(-c4ccc(CNCCN)cc4)cc32)cc1 [Compound 149]
	6.74		5.00	NCCNCc1ccc(-c2ccc3ncn(Cc4cccc(C(=O)NC5CCOCC5)c4)c3c2)cc1 [Compound 347]
5.88	6.76			NCCNCc1ccc(-c2ccc3ncn(C4CCCC4)c3c2)cc1 [Compound 146]
	6.87		5.25	COc1ccc(Cn2ncc3ccc(-c4ccc(CNCCN)cc4)cc32)cc1 [Compound 339]
5.88	6.89			CN(C)C(=O)c1ccc(Cn2cnc3ccc(-c4ccc(CNCCN)cc4)cc32)cc1 [Compound 147]
5.96	6.89	4.90		Cc1[nH]c2ncc(-c3ccc(CNCCN)cc3)cc2c1C [Compound 140]
	6.98		5.23	CS(=O)(=O)c1ccc(Cn2cnc3ccc(-c4ccc(CNCCN)cc4)cc32)cc1 [Compound 340]
	7.02		5.51	CN1CCN(CCNC(=O)c2cccc(Cn3cnc4ccc(-c5ccc(CNCCN)cc5)cc43)c2)CC1 [Compound 333]
	7.06		5.22	CN(C)C(=O)c1cccc(Cn2cnc3ccc(-c4ccc(CNCCN)cc4)cc32)c1 [Compound 341]
	7.07		5.55	NCCNCc1ccc(-c2ccc3ncn(Cc4cccc(C(=O)NC5CCCC5)c4)c3c2)cc1 [Compound 332]
6.10	7.13			Cc1cccc(Cn2cnc3ccc(-c4ccc(CNCCN)cc4)cc32)c1 [Compound 127]
	7.13		5.45	CN1CCN(C(=O)c2cccc(Cn3ncc4ccc(-c5ccc(CNCCN)cc5)cc43)c2)CC1 [Compound 335]
	7.17		5.05	N#Cc1ccc(Cn2cnc3ccc(-c4ccc(CNCCN)cc4)cc32)cc1 [Compound 344]
	7.28		5.57	NCCNCc1ccc(-c2ccc3ncn(Cc4cccc(C(=O)Nc5ccccc5)c4)c3c2)cc1 [Compound 330]
